Results as given in patent US20090048301A1 (IMCLONE SYSTEMS INCORPORATED, priority 2003, published 2009).

Key:
[1] = system: A431 human cancer cell line; assay: Sulphorhodamine B (SRB) growth inhibition assay; type: cell-based; details: A-431, A431 cells, 48 hours, read-out: SRB Assay: μM required to inhibit tumor cell growth by 50% (GI50)
Method: The in vitro growth inhibition activity of the compounds was determined by the Sulphorhodamine B assay. (Skehan P, Storeng R, Scudiero D, Monks A, McMahon J, Vistica D, Warren J T, Bokesch H, Kenney S, Boyd M R. New colorimetric cytotoxicity assay for anticancer-drug screening. J Natl Cancer Inst 82, 1107-1112, 1990). Sulphorhodamine B binds to basic amino acids and stains proteins which can be eluted and detected spectrophotometically by measuring absorbance at 515 nm. The absorbance was indicative of the total protein content of the cells fixed to the walls of the plate well at a given time by trichloroacetic acid, which is a measure of the viable cell concentration.
The in vitro growth inhibition activity of the compounds was determined using a Sulphorhodamine B assay. See, Skehan et al., “New colorimetric cytotoxicity assay for anticancer-drug screening,” J. Natl. Cancer Inst., 82, 1107-1112, (1990). Sulphorhodamine B binds to basic amino acids and stains proteins which can be eluted and detected spectrophotometically by measuring absorbance at 515 nm. The absorbance indicates the total protein content of the cells fixed to the walls of the plate well at a given time by trichloroacetic acid, which is a measure of the viable cell concentration.
The reagents used in the assay can be purchased from commercial sources and include Sulphorhodamine B 0.4% (w/v) in 1% (v/v) acetic acid (Sigma Cat#S-1402); trichloroacetic acid 50% (w/v) in deionized water, working solution (Sigma Cat#T-9159); and trizma base (Tris) 10 mM working solution, pH 7.5 (Sigma Cat#T-7693).
The procedure was cared out over four days. In Day 1, the cells were seeded in a seed 10,000 cells/100 μL/well in 96 well plate in duplicates as per template. Also, seed cells in extra plate for time zero (To plate). Thereafter, the cells were incubated for 24 hours at 37° C. with 5% CO2.
On Day 2, the test compound was added to the cells at five log doses from 100 μM to 0.01 μM (Volume of addition=100 μL in 1% DMSO for all compound concentrations, Control treatment=1% DMSO).
The compounds were prepared by weighing the test compounds in 1.5 ml eppendorf tubes and calculating the volume of DMSO to be added to bring the concentration of the compound to 20 mM. Thereafter, a 20 mM stock was made and diluted by four 10 fold dilutions in DMSO to get 2, 0.2, 0.02 and 0.002 mM solutions. Each solution was diluted 100 times (10 μL to 1 ml medium) and a further addition to the culture plate (100 μL) to half the concentration of cells was made. The final well concentration for 20 mM stock was 100 μM and similarly with other test concentrations.
The cells were incubated for 48 hours at 37° C. with 5% CO2 and terminated by adding 50 μL of 50% cold trichloroacetic acid (10% to final). Thereafter, the cells were incubated for one hour at 4° C.
On Day 4, the cells were fixed to the wells by the addition of 50 μL of 50% cold trichloroacetic acid (10% to final) and incubated for 1 hour at 4° C. The supernatant was discarded by force inverting the plate into the sink followed by washing thrice with tap water and the plates are then air-dried. 100 μL SRB (0.4% in 1% acetic acid) was added to each well and the plates were incubated for 10 minutes at room temperature. Unbound dye was removed by force inverting the plate into the sink and washing thrice with 1% acetic acid. Thereafter, the plates were allowed to air dry.
Bound SRB was solubilized with 100 μL of 10 mM Tris, pH 7.4 and the absorbance was measured at a wavelength of 515 nm.
A sample set of calculations was performed as follows. The percentage growth was calculated by T-To/C-To X 100 if T>To and T-To/To X 100 if T<To, wherein T is Test OD (with compound), C is Control OD, To is Time Zero OD (cell growth at the time of drug addition). […]

bovine tubulin = assay: In vitro tubulin polymerization assay (turbidity at 340 nm); type: biochemical; details: 10 μM compound, 30 minute data point, vs 1% DMSO control
Method in brief: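 Percent inhibition derives from turbidity (340 nm) at 30 min relative to 1% DMSO controls, read every minute at 37° C. Polymerization mix: 3 mg/ml bovine tubulin, <3% MAPs, in PIPES pH 7 G-PEM with 1 mM GTP, 1 mM MgCl2, 5% glycerol; enhancers also detectable.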

[2] = system: A431, human epidermoid carcinoma cells; assay: Cell cycle analysis (FACS), mitotic arrest in G2/M; type: cell-based; details: Homo sapiens, A-431, 24 h, read-out: FACS Assay: concentration required to achieve inhibition in FACS assay
Method in brief: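 A431 cells, 500,000/well at treatment, exposed to compounds at 0.01–1 μM final (0.1% DMSO) for 24 h. Ethanol-fixed cells RNase-treated (1 μg/ml, 37° C., 15 min), stained with propidium iodide (50 μg/ml, 30 min, RT). DNA ploidy by flow cytometry; mitotic arrest scored as G2/M accumulation.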

## COc1cc(Nc2nnc(-c3cccnc3Nc3cc(OC)cc(OC)c3)[nH]2)cc(OC)c1 [Compound 1, (3,5-Dimethoxy-phenyl)-{3-[5-(3,5-dimethoxy-phenylamino)-4H-[1,2,4]triazol-3-yl]-pyridin-2-yl}-amine]
[1]
  GI50: 5.5 µM
Bovine tubulin
  Tubulin Assay: percent inhibition at 10 μM based on 30 minute data: 45%
[2]
  minimal effective concentration: 0.1 µM

## COc1cccc(Nc2nnc(-c3cccnc3Nc3cc(OC)cc(OC)c3)[nH]2)c1 [Compound 2, (3,5-Dimethoxy-phenyl)-{3-[5-(3-methoxy-phenylamino)-4H-[1,2,4]triazol-3-yl]-pyridin-2-yl}-amine]
[1]
  GI50: 0.7 µM
Bovine tubulin
  Tubulin Assay: percent inhibition at 10 μM based on 30 minute data: 80%
[2]
  minimal effective concentration: 0.1 µM

## COc1ccc(Nc2nnc(-c3cccnc3Nc3cc(OC)cc(OC)c3)[nH]2)cc1 [Compound 3, (3,5-Dimethoxy-phenyl)-{3-[5-(4-methoxy-phenylamino)-4H-[1,2,4]triazol-3-yl]-pyridin-2-yl}-amine]
[1]
  GI50: 2.5 µM
Bovine tubulin
  Tubulin Assay: percent inhibition at 10 μM based on 30 minute data: 72%
[2]
  minimal effective concentration: 10 µM

## COc1cc(Nc2ncccc2-c2nnc(Nc3ccc(C#N)cc3)[nH]2)cc(OC)c1 [Compound 4, 4-{5-[2-(3,5-Dimethoxy-phenylamino)-pyridin-3-yl]-4H-[1,2,4]triazol-3-ylamino}-benzonitrile]
[1]
  GI50: 4 µM
Bovine tubulin
  Tubulin Assay: percent inhibition at 10 μM based on 30 minute data: 32%
[2]
  minimal effective concentration: 10 µM

## COc1cc(Nc2ncccc2-c2nnc(Nc3cc(OC)ccc3OC)[nH]2)cc(OC)c1 [Compound 5, (3,5-Dimethoxy-phenyl)-{3-[5-(2,5-dimethoxy-phenylamino)-4H-[1,2,4]triazol-3-yl]-pyridin-2-yl}-amine]
[1]
  GI50: 10 µM
Bovine tubulin
  Tubulin Assay: percent inhibition at 10 μM based on 30 minute data: 20%
[2]
  minimal effective concentration: 100 µM

## COc1cc(Nc2ncccc2-c2nnc(Nc3ccc(N(C)C)cc3)[nH]2)cc(OC)c1 [Compound 6, (3,5-Dimethoxy-phenyl)-{3-[5-(4-dimethylamino-phenylamino)-4H-[1,2,4]triazol-3-yl]-pyridin-2-yl}-amine]
[1]
  GI50: 20 µM
Bovine tubulin
  Tubulin Assay: percent inhibition at 10 μM based on 30 minute data: 35%
[2]
  minimal effective concentration: 10 µM

## COc1cccc(Nc2nnc(-c3cccnc3Nc3ccc4c(c3)OCO4)[nH]2)c1 [Compound 7, Benzo[1,3]dioxol-5-yl-{3-[5-(3-methoxy-phenylamino)-4H-[1,2,4]triazol-3-yl]-pyridin-2-yl}-amine]
[1]
  GI50: 15 µM
Bovine tubulin
  Tubulin Assay: percent inhibition at 10 μM based on 30 minute data: 47%
[2]
  minimal effective concentration: 10 µM

## CN(C)c1ccc(Nc2nnc(-c3cccnc3Nc3ccc4c(c3)OCO4)[nH]2)cc1 [Compound 11, Benzo[1,3]dioxol-5-yl-{3-[5-(4-dimethylamino-phenylamino)-4H-[1,2,4]triazol-3-yl]-pyridin-2-yl}-amine]
[1]
  GI50: 0.25 µM
Bovine tubulin
  Tubulin Assay: percent inhibition at 10 μM based on 30 minute data: 82%
[2]
  minimal effective concentration: 10 µM

## COc1cccc(Nc2nnc(-c3cccnc3NCc3ccc4c(c3)OCO4)[nH]2)c1 [Compound 13, Benzo[1,3]dioxol-5-ylmethyl-{3-[5-(3-methoxy-phenylamino)-4H-[1,2,4]triazol-3-yl]-pyridin-2-yl}-amine]
[1]
  GI50: 2 µM
Bovine tubulin
  Tubulin Assay: percent inhibition at 10 μM based on 30 minute data: 80%
[2]
  minimal effective concentration: 1 µM

## COc1ccc(OC)c(Nc2nnc(-c3cccnc3NCc3ccc4c(c3)OCO4)[nH]2)c1 [Compound 14, Benzo[1,3]dioxol-5-ylmethyl-{3-[5-(2,5-dimethoxy-phenylamino)-4H-[1,2,4]triazol-3-yl]-pyridin-2-yl}-amine]
[1]
  GI50: 20 µM
Bovine tubulin
  Tubulin Assay: percent inhibition at 10 μM based on 30 minute data: 24%
[2]
  minimal effective concentration: 100 µM

## CN(C)c1ccc(Nc2nnc(-c3cccnc3NCc3ccc4c(c3)OCO4)[nH]2)cc1 [Compound 15, Benzo[1,3]dioxol-5-ylmethyl-{3-[5-(4-dimethylamino-phenylamino)-4H-[1,2,4]triazol-3-yl]-pyridin-2-yl}-amine]
[1]
  GI50: 0.2 µM
Bovine tubulin
  Tubulin Assay: percent inhibition at 10 μM based on 30 minute data: 20%
[2]
  minimal effective concentration: 100 µM

## COc1ccc(Nc2nnc(-c3cccnc3NCc3ccc4c(c3)OCO4)[nH]2)c(OC)c1 [Compound 17, Benzo[1,3]dioxol-5-ylmethyl-{3-[5-(2,4-dimethoxy-phenylamino)-4H-[1,2,4]triazol-3-yl]-pyridin-2-yl}-amine]
[1]
  GI50: 4 µM
Bovine tubulin
  Tubulin Assay: percent inhibition at 10 μM based on 30 minute data: 80%
[2]
  minimal effective concentration: 10 µM

## COc1cccc(Nc2nnc(-c3cccnc3Nc3ccc4cn[nH]c4c3)[nH]2)c1 [Compound 18, (1H-Indazol-6-yl)-{3-[5-(3-methoxy-phenylamino)-4H-[1,2,4]triazol-3-yl]-pyridin-2-yl}-amine]
[1]
  GI50: 1.5 µM
Bovine tubulin
  Tubulin Assay: percent inhibition at 10 μM based on 30 minute data: 70%
[2]
  minimal effective concentration: 1 µM

## COc1ccc(OC)c(Nc2nnc(-c3cccnc3Nc3ccc4cn[nH]c4c3)[nH]2)c1 [Compound 20, {3-[5-(2,5-Dimethoxy-phenylamino)-4H-[1,2,4]triazol-3-yl]-pyridin-2-yl}-(1H-indazol-6-yl)-amine]
[1]
  GI50: 0.9 µM
Bovine tubulin
  Tubulin Assay: percent inhibition at 10 μM based on 30 minute data: 44%
[2]
  minimal effective concentration: 10 µM

## CN(C)c1ccc(Nc2nnc(-c3cccnc3Nc3ccc4cn[nH]c4c3)[nH]2)cc1 [Compound 21, (1H-Indazol-6-yl)-{3-[5-(4-dimethylamino-phenylamino)-4H-[1,2,4]triazol-3-yl]-pyridin-2-yl}-amine]
[1]
  GI50: 40 µM
Bovine tubulin
  Tubulin Assay: percent inhibition at 10 μM based on 30 minute data: 24%
[2]
  minimal effective concentration: 100 µM

## COc1cccc(Nc2nnc(-c3cccnc3NCc3cccnc3)[nH]2)c1 [Compound 25, {3-[5-(3-Methoxy-phenylamino)-4H-[1,2,4]triazol-3-yl]-pyridin-2-yl}-pyridin-3-ylmethyl-amine]
[1]
  GI50: 0.5 µM
Bovine tubulin
  Tubulin Assay: percent inhibition at 10 μM based on 30 minute data: 77%
[2]
  minimal effective concentration: 1 µM

## COc1ccc(Nc2nnc(-c3cccnc3NCc3cccnc3)o2)cc1OC [Compound 190, {3-[5-(3,4-Dimethoxy-phenylamino)-[1,3,4]oxadiazol-2-yl]-pyridin-2-yl}-pyridin-3-ylmethyl-amine]
[1]
  GI50: 15 µM
Bovine tubulin
  Tubulin Assay: percent inhibition at 10 μM based on 30 minute data: 56%

## O=C1CCCN1CCCNc1ncccc1-c1nnc(Nc2ccc3c(c2)OCO3)o1 [Compound 194, 1-(3-{3-[5-(Benzo[1,3]dioxol-5-ylamino)-[1,3,4]oxadiazol-2-yl]-pyridin-2-ylamino}-propyl)-pyrrolidin-2-one]
[1]
  GI50: 3 µM
Bovine tubulin
  Tubulin Assay: percent inhibition at 10 μM based on 30 minute data: 80%

## c1ccc(-c2nnc(Nc3ccc4c(c3)OCO4)o2)c(NCc2ccncc2)c1 [Compound 225, Benzo[1,3]dioxol-5-yl-(5-{2-[(pyridin-4-ylmethyl)-amino]-phenyl}-[1,3,4]oxadiazol-2-yl)-amine]
[1]
  GI50: 15 µM
Bovine tubulin
  Tubulin Assay: percent inhibition at 10 μM based on 30 minute data: 91%
